Target: T1, cathepsin B (Homo sapiens, UniProt P07858)
T1 construct: Conversion of procathepsin B in the sample into the active form of cathepsin B; from tissue; host or cells: serum sample
Experiment: enzyme assay of cathepsin B activity in deinhibited serum sample with substrate Z-Arg-Arg-AFC (fluorescence)
Format: biochemical
Details: inhibitor added to the enzyme assay after withdrawing the protease inhibitor; compared with the signal before withdrawing the inhibitor
Description: 6) Measuring the activity of cathepsin B in the sample
To 110 μl of the serum samples, which have been treated as described, in 0.5 ml reaction vessels 110 μl of a solution of the substrate (70 μM Z-Arg-Arg-AFC) are added, the pH-value of which is set at pH=6 by phosphate buffer and which contains 5 mM EDTA and 10 mM DTE. After mixing the samples are incubated for 120 min at 37° C. Subsequently the reaction vessels are cooled down with ice, centrifuged for a short time so as to bring the water condensed at the cap of the reaction vessel back to the solution and then the fluorescence emission is recorded, either on a microtiter plate by means of a fluorescence reader or in a cuvette by means of a fluorimeter. The excitation wavelength is at about 400 nm, and a suitable detection wavelength is at about 505 nm.
Thus evidence is established that the value measured in the enzyme assay after withdrawing the inhibitor relates to cathepsin B which is set free.

Row | Compound | measurement signal of the enzyme assay after addition of the inhibitor
1 | CCCNC(=O)[C@H]1O[C@@H]1C(=O)N[C@H](C(=O)N1CCC[C@H]1C(=O)O)[C@@H](C)CC [CA-074] | the same as the measuring signal, which is obtained, when the enzyme assay is carried out before withdrawing the inhibitor
2 | CC(C)C[C@H](NC(=O)[C@H]1O[C@@H]1C(=O)O)C(=O)NCCCCN=C(N)N [E 64] | the same as the measuring signal, which is obtained, when the enzyme assay is carried out before withdrawing the inhibitor

From US20130260391A1, “Method Of Determining The Protease Cathepsin B In A Biological Sample” (priority 2010, published 2013)
